Measured values published in patent publication US20070134261A1, “Effectors of innate immunity” (priority 2001, published 2007).
Values joined by “and” are separate entries in the source; they are usually repeats but may differ in a detail not shown here. Equal values may be shown once.

Tested on: human A549 epithelial cells
Assay: Resgen Human cDNA arrays (PRHU03-S3) of A549 cells treated with peptide (Tables 21-26)
Settings: 50 μg/ml, 4 h

CC[C@H](C)[C@H](N)C(=O)N[C@@H](CC(C)C)C(=O)N1CCC[C@H]1C(=O)N[C@@H](Cc1c[nH]c2ccccc12)C(=O)N[C@@H](CCCCN)C(=O)N[C@@H](Cc1c[nH]c2ccccc12)C(=O)N1CCC[C@H]1C(=O)N[C@@H](Cc1c[nH]c2ccccc12)C(=O)N[C@@H](Cc1c[nH]c2ccccc12)C(=O)N1CCC[C@H]1C(=O)N[C@@H](Cc1c[nH]c2ccccc12)C(=O)N[C@@H](CCCNC(=N)N)C(=O)N[C@@H](CCCNC(=N)N)C(N)=O [SEQ ID NO: 2]
Ratio Peptide:Unstimulated, small inducible cytokine subfamily A (Cys—Cys), member 20 (AI285199): 0.19 | Ratio Peptide:Unstimulated, TLR 1 (AI339155): 0.35 | Ratio Peptide:Unstimulated, disintegrin-like and metalloprotease with thrombospondin type 1 motif, 5 (AI375048): 0.39 | Ratio Peptide:Unstimulated, killer cell lectin-like receptor subfamily G, member 1 (AI433079): 2.3 | Ratio Peptide:Unstimulated, apoptosis antagonizing transcription factor (AI439571): 0.28 | Ratio Peptide:Unstimulated, T-cell receptor interacting molecule (AI453185): 0.41 | Ratio Peptide:Unstimulated, TGFB inducible early growth response 2 (AI473938, listed as ID 2): 2.4 and 2.38 | Ratio Peptide:Unstimulated, MAP kinase kinase kinase 1 (AI538525): 0.61 | Ratio Peptide:Unstimulated, protocadherin 12 (AI652584): 14.8 | Ratio Peptide:Unstimulated, protein tyrosine phosphatase, non-receptor type 18 (AI668897): 3.2 | Ratio Peptide:Unstimulated, Fc fragment of IgE, high affinity I, receptor for; alpha polypeptide (AI676097): 0.43 | Ratio Peptide:Unstimulated, G protein-coupled receptor 4 (AI719098): 3.7 | Ratio Peptide:Unstimulated, peroxisome proliferative activated receptor, alpha (AI739498): 0.38 | Ratio Peptide:Unstimulated, cadherin 12, type 2 (N-cadherin 2) (AI740827): 13 | Ratio Peptide:Unstimulated, complement component C1q receptor (AI761788): 0.46 | Ratio Peptide:Unstimulated, small inducible cytokine subfamily B (Cys-X-Cys), member 6 (granulocyte chemotactic protein 2) (AI889554): 0.11 | Ratio Peptide:Unstimulated, small inducible cytokine subfamily A (Cys—Cys), member 21 (AI922341): 3.9 | Ratio Peptide:Unstimulated, protein tyrosine phosphatase, receptor type, H (AI924306): 0.11 | Ratio Peptide:Unstimulated, tyrosine kinase, non-receptor, 1 (AI936324): 7.8 | Ratio Peptide:Unstimulated, MAP kinase 12 (AI936909): 2.1 | Ratio Peptide:Unstimulated, G protein-coupled receptor 17 (AI953187): 0.32 | Ratio Peptide:Unstimulated, apoptosis inhibitor 5 (AI972925): 2.8 | Ratio Peptide:Unstimulated, IL-17 R (AW029299): 2.1 | Ratio Peptide:Unstimulated, MAP kinase kinase kinase 6 (AW084649): 0.37 | Ratio Peptide:Unstimulated (C-type lectin-like receptor-2 (H70491)): 2.09 | Ratio Peptide:Unstimulated (CCR6 (N57964)): 4.51 | Ratio Peptide:Unstimulated (CD31 (PECAM) (R22412)): 2.71 | Ratio Peptide:Unstimulated, selectin L (lymphocyte adhesion molecule 1) (H00662): 0.03 | Ratio Peptide:Unstimulated, MAP kinase kinase kinase 10 (H01340): 1.23 | Ratio Peptide:Unstimulated, protein tyrosine phosphatase, non-receptor type 21 (H03504): 0.94 | Ratio Peptide:Unstimulated, MAP kinase kinase 6 (H07920, listed as ID 2): 18 and 17.83 | Ratio Peptide:Unstimulated, disintegrin and metalloproteinase domain 23 (H11006): 1.9 | Ratio Peptide:Unstimulated, vascular cell adhesion molecule 1 (H16591): 0.20 | Ratio Peptide:Unstimulated, leukocyte immunoglobulin-like receptor, subfamily B (H54023): 0.35 | Ratio Peptide:Unstimulated, disintegrin and metalloproteinase domain 9 (H59231): 1.1 | Ratio Peptide:Unstimulated, TGF beta receptor III (H62473): 0.91 | Ratio Peptide:Unstimulated, regulator of G-protein signaling 13 (H70047): 0.54 | Ratio Peptide:Unstimulated, C-type lectin-like receptor-2 (H70491): 2.1 | Ratio Peptide:Unstimulated, vasoactive intestinal peptide receptor 1 (H73241): 0.43 | Ratio Peptide:Unstimulated, protein tyrosine phosphatase, receptor type, C (H74265): 0.44 | Ratio Peptide:Unstimulated, protein tyrosine phosphatase, receptor type, A (H82419): 4.0 | Ratio Peptide:Unstimulated, G protein-coupled receptor 75 (H84878): 5.2 | Ratio Peptide:Unstimulated, cadherin 1, type 1, E-cadherin epithelial (H97778): 8.1 | Ratio Peptide:Unstimulated, TNF R superfamily, member 5 (CD40LR) (H98636, listed as ID 2): 3.0 and 2.98 | Ratio Peptide:Unstimulated (IL-11 Rα (AA454657)): 2.39 | Ratio Peptide:Unstimulated (IL-17 R (AW029299)): 2.05 | Ratio Peptide:Unstimulated (MAP kinase 9 (AA157286)): 0.57 | Ratio Peptide:Unstimulated, TLR 7 (N30597): 0.13 | Ratio Peptide:Unstimulated, CD36 (N39161): 8.2 | Ratio Peptide:Unstimulated, TLR 5 (N41021): 0.12 | Ratio Peptide:Unstimulated, protein tyrosine phosphatase, receptor type, f polypeptide (PTPRF), interacting protein (liprin), α1 (N49751): 0.43 | Ratio Peptide:Unstimulated, IL-2 receptor, gamma (severe combined immunodeficiency) (N54821): 0.30 | Ratio Peptide:Unstimulated, adenosine A2a R (N57553): 3.1 | Ratio Peptide:Unstimulated, CCR6 (N57964): 4.5 | Ratio Peptide:Unstimulated, G protein-coupled receptor 55 (N58443): 19 | Ratio Peptide:Unstimulated, G protein-coupled receptor 85 (N62306): 6.8 | Ratio Peptide:Unstimulated, leukocyte immunoglobulin-like receptor, subfamily A (N63398): 0.44 | Ratio Peptide:Unstimulated, receptor tyrosine kinase-like orphan receptor 2 (N94921): 7.3 | Ratio Peptide:Unstimulated, CD31 (R22412): 2.7 | Ratio Peptide:Unstimulated, IK cytokine, down-regulator of HLA II (R39227, listed as ID 2): 3.1 and 3.11 | Ratio Peptide:Unstimulated, cell adhesion molecule (R40400): 4.0 | Ratio Peptide:Unstimulated, cadherin 13, H-cadherin (heart) (R41787): 0.37 | Ratio Peptide:Unstimulated, diphtheria toxin receptor (heparin-binding epidermal growth factor-like growth factor) (R45640): 0.49 | Ratio Peptide:Unstimulated, protein tyrosine phosphatase, receptor type, T (R52794): 1.2 | Ratio Peptide:Unstimulated, PDGF R beta polypeptide (R56211): 2.5 | Ratio Peptide:Unstimulated, interleukin enhancer binding factor 1 (R56553): 2.7 | Ratio Peptide:Unstimulated, Fc fragment of IgG, low affinity IIb, receptor for (CD32) (R68106): 0.27 | Ratio Peptide:Unstimulated, MAP kinase kinase kinase 11 (R80779): 0.65 | Ratio Peptide:Unstimulated, protocadherin gamma subfamily C, 3 (R89615): 3.0 | Ratio Peptide:Unstimulated, G protein-coupled receptor (R91916): 1.84 | Ratio Peptide:Unstimulated, TNF receptor-associated factor 2 (T55353): 1.22 | Ratio Peptide:Unstimulated, TLR 2 (T57791): 0.52 | Ratio Peptide:Unstimulated, caspase 1, apoptosis-related cysteine protease (interleukin 1, beta, convertase) (T95052): 0.44 | Ratio Peptide:Unstimulated, BMP R type IA (W15390): 1.9 | Ratio Peptide:Unstimulated, caspase 6, apoptosis-related cysteine protease (W45688): 0.7 | Ratio Peptide:Unstimulated, MAP kinase kinase kinase 8 (W56266): 1.52 | Ratio Peptide:Unstimulated, integrin, beta 8 (W56754): 0.10 | Ratio Peptide:Unstimulated, MAP kinase kinase kinase 14 (W61116): 0.34 | Ratio Peptide:Unstimulated, integrin, beta 1 (W67174): 2.1 | Ratio Peptide:Unstimulated, MAP kinase-activated protein kinase 3 (W68281, listed as ID 2): 2.1 and 2.13 | Ratio Peptide:Unstimulated, MAP kinase kinase 5 (W69649): 3.0 | Ratio Peptide:Unstimulated, TNF receptor superfamily, member 12 (W71984): 0.59 | Ratio Peptide:Unstimulated, killer cell lectin-like receptor subfamily C, member 3 (W93370): 3.2 | Ratio Peptide:Unstimulated, Mouse Mammary Turmor Virus Receptor homolog (W93891): 6.9 | Ratio Peptide:Unstimulated (integrin, alpha 2 (CD49B) (AA463257)): 0.89 | Ratio Peptide:Unstimulated (integrin, alpha 3 (antigen CD49C) (AA424695)): 0.79 | Ratio Peptide:Unstimulated (integrin, alpha E (AA425451)): 179.33 | Ratio Peptide:Unstimulated (integrin, beta 4 (AA485668)): 0.79 | Ratio Peptide:Unstimulated (small inducible cytokine subfamily A, member 21 (AI922341)): 3.88
